From patent US20170273922A1, “UREA AND BIS-UREA BASED COMPOUNDS AND ANALOGUES THEREOF USEFUL IN THE TREATMENT OF ANDROGEN RECEPTOR MEDIATED DISEASES OR DISORDERS” (THE ROYAL INSTITUTION FOR THE ADVACEMENT OF LEARNING/MCGILL …, priority 2014, published 2017)

Tests used:
Type in all cases: cell-based
[1] = MTT assay (cytotoxicity), LNCaP cells; conditions: human, LNCaP cells, 72 h
Method: (§1) MTT assays: LNCaP, 22Rv1, Du145, H1975, A549, MB231 and MCF-7 cells are maintained in RPMI 1640 supplemented with 10% FBS. Cells were seeded at a density of 6-7×10^3 cells per well in 96-well plates. After overnight incubation, cells in fresh RPMI 1640 supplemented with 10% FBS were exposed to DMSO vehicle control or test compounds at designated concentrations for 72 h. Viable cells were evaluated by MTT assays. Experiments were performed in triplicate and repeated at least twice.

[2] = MTT assay (cytotoxicity), 22Rv1 cells; conditions: human, 22Rv1 cells, 72 h
Method: as §1

[3] = MTT assay (cytotoxicity), DU145 cells; conditions: human, DU145 cells
Method: as §1

[4] = target: T1, endogenous AR T877A mutant in LNCaP cells (Homo sapiens, UniProt P10275, T878A); assay: PSA-luc reporter assay in LNCaP cells (endogenous AR T877A mutant); conditions: PSA-luc, 24 h
T1 construct: LNCaP cells, which express endogenous AR T877A mutant; endogenous in cells; host or cells: LNCaP
T1 sequence (P10275 1-920 T878A): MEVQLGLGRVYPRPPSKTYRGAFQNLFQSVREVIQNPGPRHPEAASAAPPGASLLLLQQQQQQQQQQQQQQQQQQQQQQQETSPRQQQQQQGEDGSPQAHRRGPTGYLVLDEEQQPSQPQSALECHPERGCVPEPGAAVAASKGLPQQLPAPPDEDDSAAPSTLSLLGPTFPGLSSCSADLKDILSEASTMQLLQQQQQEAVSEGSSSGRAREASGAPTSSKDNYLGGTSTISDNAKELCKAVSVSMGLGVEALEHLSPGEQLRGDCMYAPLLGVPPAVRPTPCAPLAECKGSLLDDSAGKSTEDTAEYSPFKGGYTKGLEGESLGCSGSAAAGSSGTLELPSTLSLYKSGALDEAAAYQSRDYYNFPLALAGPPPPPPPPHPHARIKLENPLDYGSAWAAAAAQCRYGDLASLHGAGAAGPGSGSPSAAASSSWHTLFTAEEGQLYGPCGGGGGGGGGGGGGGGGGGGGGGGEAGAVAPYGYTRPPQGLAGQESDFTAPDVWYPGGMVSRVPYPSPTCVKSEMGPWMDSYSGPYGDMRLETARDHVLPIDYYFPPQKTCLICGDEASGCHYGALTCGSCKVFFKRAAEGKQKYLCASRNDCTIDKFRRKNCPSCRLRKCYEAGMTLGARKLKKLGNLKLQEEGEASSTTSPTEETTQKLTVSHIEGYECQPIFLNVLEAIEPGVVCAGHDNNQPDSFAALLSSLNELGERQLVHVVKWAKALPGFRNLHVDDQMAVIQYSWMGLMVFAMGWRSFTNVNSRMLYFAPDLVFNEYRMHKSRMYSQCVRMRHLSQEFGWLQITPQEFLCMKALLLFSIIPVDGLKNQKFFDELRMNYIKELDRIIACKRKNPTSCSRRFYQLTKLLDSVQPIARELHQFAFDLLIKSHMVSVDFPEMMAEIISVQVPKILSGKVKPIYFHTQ
Method: Experiments were in duplicate and repeated three times. […] LNCaP cells in whole medium were exposed to DMSO vehicle control or compounds for 24 h.

| Compound | IC50 at 72 h ([1]; Table 2.4) [µM] | IC50 at 72 h ([2]; Table 2.4) [µM] | IC50 at 72 h ([3]; Table 2.4) [µM] | IC50 at 72 h ([1]; Table 2.3) [µM] | IC50 at 72 h ([2]; Table 2.3) [µM] | IC50 at 72 h ([3]; Table 2.3) [µM] | also measured |
| --- | --- | --- | --- | --- | --- | --- | --- |
| O=C(N/C=C/c1cccc(C(F)(F)F)c1)NCc1ccc([N+](=O)[O-])cc1 [Compound 447] | 7.5 | 7.5 | 8 | – | – | – | effect of increasing DHT from 1 nM to 10 nM on inhibitory activity in LNCaP cells [4]: not competed out |
| CC(C)(C)OC(=O)n1cnc(/C=C/NC(=O)Nc2ccc([N+](=O)[O-])c(C(F)(F)F)c2)c1 [Compound 453] | 4 | > 20 | > 20 | – | – | – | – |
| O=C(N/C=C/c1ccc([N+](=O)[O-])c(C(F)(F)F)c1)NCc1cccc(C(F)(F)F)c1 [Compound 461] | 2.4 | 3.4 | 3.4 | – | – | – | – |
| O=C(N/C=C/c1cc(C(F)(F)F)cc(C(F)(F)F)c1)Nc1ccc2ncccc2c1 [Compound 515] | – | – | – | > 10 | > 10 | > 10 | – |
| O=C(N/C=C/c1cc(C(F)(F)F)ccc1C(F)(F)F)Nc1ccc2ncccc2c1 [Compound 517] | – | – | – | 3.4 | > 10 | 6.2 | – |
| O=C(N/C=C/c1cccc(C(F)(F)F)c1)Nc1ccc2[nH]ccc2c1 [Compound 520] | – | – | – | 6.5 | > 10 | > 10 | – |
| O=C(Nc1cccc(C(F)(F)F)c1)Nc1ccc2[nH]ccc2c1 [Compound 522] | – | – | – | – | – | – | IC50 at 72 h ([1]; Table 4.1): > 10 µM; IC50 at 72 h ([2]; Table 4.1): > 10 µM; IC50 at 72 h ([3]; Table 4.1): > 10 µM |
| O=C(N/C=C/c1cc(C(F)(F)F)cc(C(F)(F)F)c1)Nc1cnc2ccccc2c1 [Compound 523] | – | – | – | 8 | 8.4 | 10 | – |
| O=C(N/C=C/c1cc(C(F)(F)F)ccc1C(F)(F)F)Nc1cnc2ccccc2c1 [Compound 524] | – | – | – | 3.4 | 8.4 | 7.4 | – |
| O=C(N/C=C/c1cccc(C(F)(F)F)c1)Nc1cnc2ccccc2c1 [Compound 525] | – | – | – | > 10 | > 10 | > 10 | – |
